Literature values as cited in patent US20030212274A1, “Novel amorphous form of omeprazole salts” (priority 2003, published 2003).
Read-outs that look alike come from different tables or passages of the source.

What was measured:
[1] = storage at +37° C., relative humidity 80%, 6 months (accelerated conditions)

- half-life of degradation in water solutions (pH-values less than four): ten
- half-life of degradation in water solutions (pH=7): about 14 hours
- substance converted to degradation products [1]: about 6%
SMILES: COc1ccc2[nH]c([S+]([O-])Cc3ncc(C)c(OC)c3C)nc2c1 (stereo not drawn) [Omeprazole, 5-methoxy-2-[(4-methoxy-3,5-dimethyl-2-pyridinyl)-methyl]sulfinyl-1H-benzimidazole]
